Test system: not listed separately
Assay: Approximate acute toxicity (LD50) in the mouse, single administration per os
Conditions: in vivo, po, measured on the seventh day
Method: The toxicity of the compounds of the invention is quite negligible. For example, for the compounds A and B mentioned in the foregoing Tables the approximate acute toxicity (LD50) in the mouse, determined with single administration of increasing doses and measured on the seventh day of treatment, was, per os, much higher than 800 mg/kg. Similar LD50 are found also for the other compounds of the invention, in particular for the compounds: […]

Compound	LD50 at 168 h
CCOCCN(Cc1ccc(Oc2ccc(NC(C)=O)cc2)cc1)C(=O)C(Cl)Cl [Compound B, N-(β-ethoxy-ethyl)-N-[4-phenoxy-(4'-acetamido)-benzyl]-dichloroacetamide]	> 800 mg/kg

Test system: Entamoeba histolytica Meah
Assay: In vitro antiamebic activity by serial dilutions in monophasic Pavlova medium
Assay type: cell-based
Conditions: Dosage I; 48 hours, 37° C.
Method: The in vitro activity on Entamoeba histolytica Meah was determined on the products under test and on reference compounds, by the method of serial dilutions (ratio 1:1.5) in monophasic Pavlova medium with inoculation of 30,000 protozoa/ml and with incubation at 37° C. for 48 hours.
The level of activity of the compounds was determined by means of direct microscopical examination at 125 and 500 magnifications of the entire sediment of each culture. The results were expressed as minimal amoebicidal concentration in μg/ml.

Compound	minimal amoebicidal concentration
CCOCCN(Cc1ccc(Oc2ccc(NC(C)=O)cc2)cc1)C(=O)C(Cl)Cl [Compound B, N-(β-ethoxy-ethyl)-N-[4-phenoxy-(4'-acetamido)-benzyl]-dichloroacetamide]	0.004 µg/mL
CN(C(=O)C(Cl)Cl)c1ccc(OC(=O)c2ccco2)cc1 [Diloxanide furoate]	0.44 µg/mL
CCOCCN(Cc1ccc(CN(CCOCC)C(=O)C(Cl)Cl)cc1)C(=O)C(Cl)Cl [Teclozan]	0.058 µg/mL

Same assay, conditions: Dosage II; 48 hours, 37° C.

Compound	minimal amoebicidal concentration
CCOCCN(Cc1ccc(Oc2ccc(NC(C)=O)cc2)cc1)C(=O)C(Cl)Cl [Compound B, N-(β-ethoxy-ethyl)-N-[4-phenoxy-(4'-acetamido)-benzyl]-dichloroacetamide]	0.005 µg/mL
CN(C(=O)C(Cl)Cl)c1ccc(OC(=O)c2ccco2)cc1 [Diloxanide furoate]	0.44 µg/mL
CCOCCN(Cc1ccc(CN(CCOCC)C(=O)C(Cl)Cl)cc1)C(=O)C(Cl)Cl [Teclozan]	0.058 µg/mL

Same assay, conditions: Dosage III; 48 hours, 37° C.

Compound	minimal amoebicidal concentration
CCOCCN(Cc1ccc(Oc2ccc(NC(C)=O)cc2)cc1)C(=O)C(Cl)Cl [Compound B, N-(β-ethoxy-ethyl)-N-[4-phenoxy-(4'-acetamido)-benzyl]-dichloroacetamide]	0.007 µg/mL
CN(C(=O)C(Cl)Cl)c1ccc(OC(=O)c2ccco2)cc1 [Diloxanide furoate]	0.44 µg/mL
CCOCCN(Cc1ccc(CN(CCOCC)C(=O)C(Cl)Cl)cc1)C(=O)C(Cl)Cl [Teclozan]	0.087 µg/mL

Same assay, conditions: Dosage IV; 48 hours, 37° C.

Compound	minimal amoebicidal concentration
CCOCCN(Cc1ccc(Oc2ccc(NC(C)=O)cc2)cc1)C(=O)C(Cl)Cl [Compound B, N-(β-ethoxy-ethyl)-N-[4-phenoxy-(4'-acetamido)-benzyl]-dichloroacetamide]	0.013 µg/mL
CN(C(=O)C(Cl)Cl)c1ccc(OC(=O)c2ccco2)cc1 [Diloxanide furoate]	0.29 µg/mL
CCOCCN(Cc1ccc(CN(CCOCC)C(=O)C(Cl)Cl)cc1)C(=O)C(Cl)Cl [Teclozan]	0.058 µg/mL

Same assay, conditions: Dosage IX; 48 hours, 37° C.

Compound	minimal amoebicidal concentration
CCOCCN(Cc1ccc(Oc2ccc(NC(C)=O)cc2)cc1)C(=O)C(Cl)Cl [Compound B, N-(β-ethoxy-ethyl)-N-[4-phenoxy-(4'-acetamido)-benzyl]-dichloroacetamide]	0.017 µg/mL
CN(C(=O)C(Cl)Cl)c1ccc(OC(=O)c2ccco2)cc1 [Diloxanide furoate]	0.19 µg/mL
CCOCCN(Cc1ccc(CN(CCOCC)C(=O)C(Cl)Cl)cc1)C(=O)C(Cl)Cl [Teclozan]	0.087 µg/mL

Same assay, conditions: Dosage V; 48 hours, 37° C.

Compound	minimal amoebicidal concentration
CCOCCN(Cc1ccc(Oc2ccc(NC(C)=O)cc2)cc1)C(=O)C(Cl)Cl [Compound B, N-(β-ethoxy-ethyl)-N-[4-phenoxy-(4'-acetamido)-benzyl]-dichloroacetamide]	0.017 µg/mL
CN(C(=O)C(Cl)Cl)c1ccc(OC(=O)c2ccco2)cc1 [Diloxanide furoate]	0.29 µg/mL
CCOCCN(Cc1ccc(CN(CCOCC)C(=O)C(Cl)Cl)cc1)C(=O)C(Cl)Cl [Teclozan]	0.087 µg/mL

Same assay, conditions: Dosage VI; 48 hours, 37° C.

Compound	minimal amoebicidal concentration
CCOCCN(Cc1ccc(Oc2ccc(NC(C)=O)cc2)cc1)C(=O)C(Cl)Cl [Compound B, N-(β-ethoxy-ethyl)-N-[4-phenoxy-(4'-acetamido)-benzyl]-dichloroacetamide]	0.008 µg/mL
CN(C(=O)C(Cl)Cl)c1ccc(OC(=O)c2ccco2)cc1 [Diloxanide furoate]	0.19 µg/mL
CCOCCN(Cc1ccc(CN(CCOCC)C(=O)C(Cl)Cl)cc1)C(=O)C(Cl)Cl [Teclozan]	0.058 µg/mL

Same assay, conditions: Dosage VII; 48 hours, 37° C.

Compound	minimal amoebicidal concentration
CCOCCN(Cc1ccc(Oc2ccc(NC(C)=O)cc2)cc1)C(=O)C(Cl)Cl [Compound B, N-(β-ethoxy-ethyl)-N-[4-phenoxy-(4'-acetamido)-benzyl]-dichloroacetamide]	0.003 µg/mL
CN(C(=O)C(Cl)Cl)c1ccc(OC(=O)c2ccco2)cc1 [Diloxanide furoate]	0.29 µg/mL
CCOCCN(Cc1ccc(CN(CCOCC)C(=O)C(Cl)Cl)cc1)C(=O)C(Cl)Cl [Teclozan]	0.087 µg/mL

Same assay, conditions: Dosage VIII; 48 hours, 37° C.

Compound	minimal amoebicidal concentration
CCOCCN(Cc1ccc(Oc2ccc(NC(C)=O)cc2)cc1)C(=O)C(Cl)Cl [Compound B, N-(β-ethoxy-ethyl)-N-[4-phenoxy-(4'-acetamido)-benzyl]-dichloroacetamide]	0.026 µg/mL
CN(C(=O)C(Cl)Cl)c1ccc(OC(=O)c2ccco2)cc1 [Diloxanide furoate]	0.19 µg/mL
CCOCCN(Cc1ccc(CN(CCOCC)C(=O)C(Cl)Cl)cc1)C(=O)C(Cl)Cl [Teclozan]	0.087 µg/mL

Same assay, conditions: Dosage X; 48 hours, 37° C.

Compound	minimal amoebicidal concentration
CCOCCN(Cc1ccc(Oc2ccc(NC(C)=O)cc2)cc1)C(=O)C(Cl)Cl [Compound B, N-(β-ethoxy-ethyl)-N-[4-phenoxy-(4'-acetamido)-benzyl]-dichloroacetamide]	0.017 µg/mL
CN(C(=O)C(Cl)Cl)c1ccc(OC(=O)c2ccco2)cc1 [Diloxanide furoate]	0.19 µg/mL
CCOCCN(Cc1ccc(CN(CCOCC)C(=O)C(Cl)Cl)cc1)C(=O)C(Cl)Cl [Teclozan]	0.058 µg/mL

Same assay, conditions: mean of Dosage I-X; 48 hours, 37° C.

Compound	minimal amoebicidal concentration, mean
CCOCCN(Cc1ccc(Oc2ccc(NC(C)=O)cc2)cc1)C(=O)C(Cl)Cl [Compound B, N-(β-ethoxy-ethyl)-N-[4-phenoxy-(4'-acetamido)-benzyl]-dichloroacetamide]	0.011 µg/mL
CN(C(=O)C(Cl)Cl)c1ccc(OC(=O)c2ccco2)cc1 [Diloxanide furoate]	0.30 µg/mL
CCOCCN(Cc1ccc(CN(CCOCC)C(=O)C(Cl)Cl)cc1)C(=O)C(Cl)Cl [Teclozan]	0.072 µg/mL

Source: patent US4302472A, “Substituted N-(β-alkoxy-ethyl)-N-(4-phenoxy-benzyl)-dichloro-acetamides and process for their preparation” (Farmitalia Carlo Erba S.p.A., priority 1977, dated 1981)
